According to patent US4225619A, “Substituted fluoracylresorcinols” (Boehringer Ingelheim GmBH, priority 1976, dated 1980):
Values after ≈ are worked out from the molar mass of the structure shown.

Assays:
Format in all cases: cell-based
[1] = test system: Staphylococcus aureus SG 511; assay: Serial dilution test; settings: Staphylococcus aureus, SG511, 18-20 hours at 37° C., read-out: MIC, S.D.T., Staphylococcus aureus SG 511
Protocol: (§1) The inhibitory effect on bacteria and fungi was examined by the serial dilution test and the agar diffusion test (hole-test). As bacteria were used: Staphylococcus aureus SG 511, Streptococcus Aronson, Streptococcus pyogenes At CC 86 68; as fungi: Candida albicans AT CC 10231, Trichophyton mentagrophytes AT CC 9129 and Aspergillus niger.
1. Meat extract broth: for St. aureus SG 511
(§2) The age of the primary cultures is 24 hours for bacteria and 14 days for fungi. The standardization of the suspension of microorganisms is effected using a photometer according to Eppendorf (test tube .phi.14 mm, filter 546 nm) and a suspension for comparison consisting of barium sulfate, this suspension being created by adition of 3.0 ml of 1% barium chloride solution to 97 ml of 1% sulfuric acid. After the standardization the bacteria were further diluted to a concentration of 1:1000 by means of sodium chloride solution, the fungi were used in an undiluted state.
(§3) 40 mgm of the substance were put into a 10 ml measuring flask and filled up to the mark with the solvent (corresponds to a dilution of 1:250=4000 μg/ml). The further dilution series was standardized with distilled water or the respective solvent and the following substance concentrations were prepared: 1000; 250; 62.5 μg/ml.
(§4) The tubes were filled with 4.9 ml of the corresponding liquid nutrient medium. Then 0.1 ml of the substance dilution prepared above was added to each tube, so that the mentioned final concentrations were present. Finally each tube was inoculated with 0.1 ml of the standardized suspension of microorganisms. Control tests merely using the solvent are to be carried out simultaneously.
(§5) Bacteria were incubated at 37° C. for 18-20 hours and fungi at 27° C. for 7 days.
(§6) The measurement is carried out macroscopically defining the minimal inhibitory concentration (the lowest still microbiostatically effective concentration).

[2] = test system: Aspergillus niger; assay: Agar diffusion test (hole-test); settings: 168 h, 27° C. for 7 days, read-out: MIC, A.D.T., Aspergillus niger
Protocol: as §1
(§7) 3. Sabouraud agar: for C. alb., Trich. ment., A. niger
as §2, with “addition” for “adition”, “St. aureus SG 511 was” for “the bacteria were further”, “diluted” for “diluted to a concentration of”, “1:1000 and Sc. pyogenes and Aronson 1:100” for “1:1000”, “solution. The” for “solution, the”
(§8) 40 mgm of the substance were put into a 10 ml measuring flask and filled up to the mark with the solvent (corresponds to a dilution of 1:250=4000 μg/ml).
(§9) The dilutions to the concentrations under test were effected with distilled water or the respective solvent.
(§10) 19 ml of the nutrient medium were filled into sterile Petri dishes of a diameter of 8 cm and dried. Subsequently the agar plates were charged with 4 ml of seed agar. 100 ml of seed agar contain 1.25 ml of the suspension of microorganisms, an agar plate thus containing 0.05 ml of the suspension of microorganisms. After solidification of the agar, 5 holes of a diameter of 5 mm were punched into the plates and filled with 0.05 ml of the correspondingly concentrated substance solution.
(§11) Control tests merely using the solvent are to be carried out simultaneously.
as §5
(§12) The diameter of the area of inhibition in mm was measured after having deducted the diameter of the hole.

[3] = test system: Candida albicans AT CC 10231; assay: Agar diffusion test (hole-test); settings: ATCC10231, 168 h, 27° C. for 7 days, read-out: MIC, A.D.T., Candida albicans
Protocol: as §1, §7
as §2, with “addition” for “adition”, “St. aureus SG 511 was” for “the bacteria were further”, “diluted” for “diluted to a concentration of”, “1:1000 and Sc. pyogenes and Aronson 1:100” for “1:1000”, “solution. The” for “solution, the”
as §8, §9, §10, §11, §5, §12

[4] = test system: Trichophyton mentagrophytes AT CC 9129; assay: Agar diffusion test (hole-test); settings: ATCC9129, 168 h, 27° C. for 7 days, read-out: MIC, A.D.T., Trichophyton mentagrophytes
Protocol: as §1, §7
as §2, with “addition” for “adition”, “St. aureus SG 511 was” for “the bacteria were further”, “diluted” for “diluted to a concentration of”, “1:1000 and Sc. pyogenes and Aronson 1:100” for “1:1000”, “solution. The” for “solution, the”
as §8, §9, §10, §11, §5, §12

[5] = test system: Trichophyton mentagrophytes AT CC 9129; assay: Serial dilution test; settings: ATCC9129, 168 h, 27° C. for 7 days, read-out: MIC, S.D.T., Trichophyton mentagrophytes
Protocol: as §1
3. Sabouraud broth: for C. alb., Trich. mnt., A. niger
as §2, §3, §4, §5, §6

[6] = test system: Pityrosporum ovale CBS 1878; assay: Agar diffusion test for Pityrosporum ovale CBS 1878; settings: Malassezia furfur, CBS1878, 168 h, 7 days at 27° C., read-out: MIC, A.D.T., Pityrosporum ovale
Protocol: Agar diffusion test for Pityrosporum ovale CBS 1878 Nutrient medium
Littmann's agar, 23 ml per Petri dish, diameter of dish 100 mm.
Suspension of microorganisms in 0.9% sodium chloride solution, standardized using a photometer according to Eppendorf by means of a suspension for comparison consisting of barium sulfate. 0.05 ml per plate were used. The test substances were dissolved in dimethyl sulfoxide. The incubation time was 7 days at 27° C.; the area of inhibition in mm was measured, 0.05 ml of the solution of the substance were used for each punch-hole of a diameter of 6 mm. The results of these tests are recorded in the following tables 1 and 2: […]

[7] = test system: Pityrosporum ovale; assay: Serial dilution test for Pityrosporum ovale; settings: Malassezia furfur, 168 h, 27° C. for 7 days, read-out: MIC, S.D.T., Pityrosporum ovale
Protocol: Serial dilution test for Corynebacterium acnes and Pityrosporum ovale Nutrient medium
For Corynebacterium acnes: thioglycolate-broth for Pityrosporum ovale: Littmann's broth, 5 ml per tube.
Suspension of microorganisms in 0.9% sodium chloride solution, standardized using a photometer according to Eppendorf by means of a suspension for comparison consisting of barium sulfate, for Corynebacterium acnes in a dilution of 1:100, for Pityrosporum ovale in an undiluted state. 0.1 ml of the suspensions was used per test tube. Dimethyl sulfoxide served as a solvent for the substances.
The suspension with Corynebacteria acnes was incubated at 37° C. for 48 hours, the suspension of Pityrosporum ovale at 27° C. for 7 days. The reading was effected by macroscopic evaluation of the growth of microorganisms and registration of the minimal inhibitory concentration.

[8] = test system: HeLa-cell culture; assay: Inhibition of HeLa cell cultures; settings: Homo sapiens, 72 h, 37° C. for 3 days, 5% carbon dioxide; for IC50: read-out: ED50, HeLa cell culture; for minimal effective concentration: read-out: Minimal inhibitory concentration, HeLa cell culture
Protocol: Measurement of the inhibition of cell cultures
HeLa-cell culture was treated with trypsin and adjusted to a cell number of 150,000 cells/ml of fresh medium. The substance was always dissolved in the same quantity of dimethyl sulfoxide and then further diluted with growth medium. 0.1 ml of the substance-dilutions were added to each well of microtiter plates and then 0.2 ml of cell suspension were added (4 wells per dilution). Several growth controls containing 0.1 ml of growth medium instead of 0.1 ml of substance dilution were put up. After careful mixing, the cultures were incubated at 37° C. for 3 days in a 5% carbon dioxide atmosphere. The reading was effected in comparison with these controls. The results were given as the percentage of the deficiency and degeneration compared to the growth control. […] The statements are referred to μg of substance per ml of total medium.

Compound | MIC [1] [µg/mL] | MIC [2] [µg/mL] | MIC [3] [µg/mL] | MIC [4] [µg/mL] | MIC [5] [µg/mL] | MIC [6] [µg/mL] | MIC [7] [µg/mL] | IC50 [8] [µg/mL] | minimal effective concentration [8] [µg/mL]
COc1ccc(C(=O)C(F)(F)F)c(OC)c1 [D, 2,4-Dimethoxy-trifluoroacetophenone, reference compound] | > 80 | > 4000 | > 4000 | > 4000 | > 80 | > 4000 | > 80 | 90.1 (≈ 385 µM) | 25
CCc1cc(C(=O)C(F)(F)F)c(O)cc1O [B, 5-Ethyl-2,4-dihydroxy-trifluoroacetophenone, reference compound] | 20 (≈ 85.4 µM) | 250 (≈ 1070 µM) | 1000 (≈ 4270 µM) | 250 (≈ 1070 µM) | 5 (≈ 21.4 µM) | 1000 (≈ 4270 µM) | 80 (≈ 342 µM) | 9.75 (≈ 41.6 µM) | 6.25
CCc1c(O)ccc(C(=O)C(F)(F)F)c1O [C, 3-Ethyl-2,4-dihydroxy-trifluoroacetophenone, reference compound] | 5 (≈ 21.4 µM) | 1000 (≈ 4270 µM) | 1000 (≈ 4270 µM) | 62.5 (≈ 267 µM) | 1.25 (≈ 5.34 µM) | 1000 (≈ 4270 µM) | > 80 | – | –
O=C(c1ccc(O)cc1O)C(F)(F)F [A, 2,4-Dihydroxy-trifluoroacetophenone, reference compound] | 80 (≈ 388 µM) | 250 (≈ 1210 µM) | 1000 (≈ 4850 µM) | 250 (≈ 1210 µM) | 20 (≈ 97 µM) | 1000 (≈ 4850 µM) | 80 (≈ 388 µM) | 12.5 (≈ 60.6 µM) | 3.13

Stronger by MIC [1], values ahead:

MIC [1] [µg/mL] | MIC [2] [µg/mL] | MIC [3] [µg/mL] | MIC [4] [µg/mL] | MIC [5] [µg/mL] | MIC [6] [µg/mL] | MIC [7] [µg/mL] | IC50 [8] [µg/mL] | Compound | minimal effective concentration [8] [µg/mL]
1.25 (≈ 5.04 µM) | – | – | – | – | – | – | 3.52 (≈ 14.2 µM) | CC(C)c1c(O)ccc(C(=O)C(F)(F)F)c1O [P, 2,4-Dihydroxy-3-isopropyl-trifluoroacetophenone] | 1.56
0.31 (≈ 1.03 µM) | 62.5 (≈ 207 µM) | 1000 (≈ 3310 µM) | ≤ 15.6 | 1.25 (≈ 4.14 µM) | 1000 (≈ 3310 µM) | > 80 | 4.2 (≈ 13.9 µM) | CC1CCC(c2c(O)ccc(C(=O)C(F)(F)F)c2O)CC1 (stereo not shown) [H, 2,4-Dihydroxy-3-(4'-methyl)-cyclohexyl-trifluoro-acetophenone] | ≤ 0.78
0.08 (≈ 0.305 µM) | 250 (≈ 953 µM) | 250 (≈ 953 µM) | ≤ 15.6 | 1.25 (≈ 4.77 µM) | 250 (≈ 953 µM) | 80 (≈ 305 µM) | 7.7 (≈ 29.4 µM) | CC(C)Cc1c(O)ccc(C(=O)C(F)(F)F)c1O [F, 2,4-Dihydroxy-3-iso-butyl-trifluoroacetophenone] | 0.78
